Data taken from patent publication US6803030B2, “Bile acids conjugates with metal ion chelates and the use thereof” (Bracco Imaging S.p.A., priority 2000, dated 2004).

Test: Pharmacokinetics screening in rats (biliary and urinary excretion, residual tissue content of gadolinium by ICP-AES)
Assay type: in vivo
Conditions: for Biliary % of the injected dose / Urinary % of the injected dose: anaesthetised CD(SD)BR male rats, i.v. 0.1 mmol/kg
Description: The experimentation was performed with the complex compound of example 1.
The screening was performed in 3 anaesthetised CD(SD)BR male rats (Charles River Italia).
The animals were maintained according to EEC Council Directive […] as included in Italian law DL116/92 (experimental typology KIN 3).
The contrast agent was injected in the vena saphena at the single dose of 0.1 mmol.kg^−1, injection rate of 6 mL-min^−1.
After the administration of the complex compound, the collection of the biological fluids in the anaesthetised rats was performed by cannulation of urinary bladder and biliary duct. The urine was collected at 0 to 60, 60 to 120, 120 to 240, 240 to 480 min after injection; the bile at −30 to 0, 0 to 15, 15 to 30, 30 to 60, 60 to 120, 120 to 240, 240 to 480 min after injection.
Animals were killed at the end of the studies by exanguination from abdominal aorta.
Blood, liver and kidneys were collected after the sacrifice for the assay of gadolinium by inductively coupled plasma atomic emission ICP-AES.

[1] = anaesthetised rats, intravenous, 0 to 480 min period
[2] = anaesthetised rats, intravenous, at 480 min after administration

Gadolinium complex of [3α[3(S),4(S)],5β,12α]-3-[[[trans-3,4-bis[[[5-[bis[2-[bis(carboxymethyl)amino]ethyl]amino]-5-carboxypentyl]amino]carbonyl]-1-pyrrolidinyl]carbonyl]oxy]-12-hydroxycholan-24-oic acid salified with sodium (1:5) [Example 1]
Biliary % of the injected dose (collection time 0 to 15 min): 0.0102 ± 0.0010 % of the injected dose
Biliary % of the injected dose (collection time 0 to 30 min): 0.0208 ± 0.0012 % of the injected dose
Biliary % of the injected dose (collection time 0 to 60 min): 0.0374 ± 0.0023 % of the injected dose
Urinary % of the injected dose (collection time 0 to 60 min): 11.2 ± 4.6 % of the injected dose
Biliary % of the injected dose (collection time 0 to 120 min): 0.0561 ± 0.0052 % of the injected dose
Urinary % of the injected dose (collection time 0 to 120 min): 18.6 ± 5.0 % of the injected dose
Biliary % of the injected dose (collection time 0 to 240 min): 0.0950 ± 0.0073 % of the injected dose
Urinary % of the injected dose (collection time 0 to 240 min): 27.9 ± 5.3 % of the injected dose
Biliary % of the injected dose (collection time 0 to 480 min): 0.175 ± 0.020 % of the injected dose
Urinary % of the injected dose (collection time 0 to 480 min): 36.2 ± 2.7 % of the injected dose
biliary excretion [1]: 0.175 % of ID
urinary excretion [1]: 36 % of ID
residual content in kidney [2]: 6.7 % of the injected dose
residual content in liver [2]: 2.564 % of the injected dose
residual content in plasma [2]: 14.3 % of the injected dose
